Source: patent US20060045855A1, “Oral composition for reducing plaque and microbial infections and whitening teeth” (priority 2004, published 2006)

What was measured:
[1] = Time-course of generation of ClO2 after 1:1 mixing of NaClO2 solution and oxidizing agent solution, change in absorption at 360 nm; settings: from NaClO2 in the presence of the oxidizing agent
Text: The pH of the resulting composition should be at or below about 7, but above the pKa of chlorous acid. It is known that ClO2 is generated from NaClO2 at pH values at or below about 7 in the absence of an oxidizing agent such as […]. However, the generation is quite slow (on the order of days and months). In the presence of an oxidizing agent such as […] or tannic acid, under the conditions described above, therapeutically effective levels of ClO2 begin to be generated in seconds, as shown below in Tables 1 and 2. Increasing the concentration of the oxidizing agent by weight will cause a more rapid generation of ClO2.

[2] = standard temperature and pressure; cited from earlier work
[3] = same solution as H2O2; cited from earlier work

Row | Structure (SMILES) | time in which therapeutically effective levels of ClO2 begin to be generated [1] | solubility in water [2] | stability in the presence of H2O2 [3]
1 | O=C(OC[C@H]1O[C@@H](OC(=O)c2cc(O)c(O)c(OC(=O)c3cc(O)c(O)c(O)c3)c2)[C@H](OC(=O)c2cc(O)c(O)c(OC(=O)c3cc(O)c(O)c(O)c3)c2)[C@@H](OC(=O)c2cc(O)c(O)c(OC(=O)c3cc(O)c(O)c(O)c3)c2)[C@@H]1OC(=O)c1cc(O)c(O)c(OC(=O)c2cc(O)c(O)c(O)c2)c1)c1cc(O)c(O)c(OC(=O)c2cc(O)c(O)c(O)c2)c1 [tannic acid] | in seconds | 1 g/0.35 mL water | 
2 | O=C1O[C@H]([C@@H](O)CO)C(O)=C1O [ascorbic acid] | in seconds |  | 
3 | O=S(=O)([O-])OOS(=O)(=O)[O-].[Na+].[Na+] [sodium persulfate] |  |  | degrades very quickly
